From patent US20190055279A1, “NOVEL POLYPEPTIDES WITH IMPROVED PROTEOLYTIC STABILITY, AND METHODS OF PREPARING AND USING SAME” (TUFTS UNIVERSITY, priority 2015, published 2019) come the findings set out here.

“Also recorded” adds a separate entry of the source. Where a SMILES comes first, the peptide text is derived from it. Side-chain parts run from the residue outwards. [ ]: non-standard residue; d: D form. The star is where a group is joined. N(CH2CF3)His = O=C(O)[C@H](Cc1c[nH]cn1)NCC(F)(F)F; Palmitoyl = CCCCCCCCCCCCCCCC(=O)*; βAla = NCCC(=O)O A value given as a limit tells only on which side of the number the result lay.

The target in data set [1] is T1, DPP4 (Homo sapiens, UniProt P27487). Description: Sensitivity to DPP4: overnight incubation with recombinant DPP4 or vehicle, then receptor agonist bioassay. Conditions: for DPP4 degradation / resistance (in words): overnight incubation with or without DPP4, readout at cognate receptor. The procedure: Plotting concentration versus the luciferase activity yielded quantitative parameters for combined binding (potency) and signaling (efficacy) in a single step. […] DPP4 treated peptides: 10 μl of 0.26 mM peptide were incubated with 2 μL DPP4 in buffer ±DMSO for 18 hrs. Control peptides: 10 μl of 0.26 mM peptide was added to buffer ±DMSO. The final DMSO concentration was the same for all peptides and all peptides were diluted to 0.26 mM concentrations for the DPP4 assay.
Compounds are incubated overnight at 37° C. in the presence of recombinant DPP4 or vehicle (TRIS buffer). The samples are then assessed in GLP-1R agonist assays.
Compounds were incubated overnight at 37° C. in the presence of recombinant DPP4 or vehicle (TRIS buffer, pH 8.0). The samples were then assessed in GLP1R agonist assays as described elsewhere herein.

Data set [2] has as its target T1, DPP4. As to the kind of experiment: DPP4 degradation of GLP-2 peptides: incubation with recombinant DPP4, then GLP-2R reporter assay. Conditions: GLP-2R readout.
Experimental: Peptides were incubated with vehicle or recombinant DPP4. Serial dilutions of GLP2-1 and GLP2-4 were then applied to HEK293 cells, which had been transfected with cDNA encoding human GLP-2R and a cAMP-responsive reporter gene.
Peptides were incubated with recombinant DPP4. Serial dilutions of GLP-2 and GLP2-4 were then applied to HEK293 cells, which had been transfected with cDNA encoding human GLP-2R and a cAMP-responsive reporter gene. […] N=4, mean+SEM.
DPP4 resistance (FIG. 13): Lipidated peptides are compared with the prototype, F-GLP2-palm. After an overnight incubation (16 hrs) in the presence vs. the absence of DPP4, receptor mediated function is assessed as shown elsewhere herein. As a DPP4 susceptible control, parallel experiments are done using GLP-2. […] Following overnight preincubation, serial dilutions of ligands were prepared and added to GLP-2R expressing cells for 4 hours. A luciferase reporter gene assay was used to monitor Gαs coupled second messenger signaling.
Data set [3] in a line: Plasma GLP-2R agonist activity 24 h after s.c. injection in mice (luciferase reporter gene assay). Type of data set: in vivo. To be noted: 1.25 μg s.c., compared with Gattex. The procedure:
Clearance of this compound was compared to that of Gattex, an established GLP-2 based drug, Compounds (1.25 μg) were injected subcutaneously (s.c.) in mice. Plasma was collected after 24 h and analyzed by luciferase reporter gene assay for GLP-2R agonist activity.
Compounds (1.25 μg) were injected s.c. in mice. Plasma was collected after 24 h and analyzed by luciferase reporter gene assay for GLP-2R agonist activity.

In another data set the test system is C57BL/6J mice. As to the kind of experiment: Intestinal mucosal growth after five daily s.c. injections in C57BL/6J mice. Type of data set: in vivo. To be noted: s.c. once daily for five days; for intestinal mucosal growth / trophic effect: 25 μg/mouse for villus height; for intestinal weight: sacrificed on day 6, N=6 animals/group. The protocol:
C57BL/6J mice were injected s.c. once daily for five days with either vehicle, GLP2-L17K(l1)-4, or Gattex at indicated doses. Animals were sacrificed on day 6, followed by analysis of intestinal tissue.
C57BL/6J mice were injected s.c. once daily for five days with either vehicle, GLP2-L17K [L1]-4 or Gattex at indicated doses. Animals were sacrificed on day 6, followed by measurement of intestinal weight. […] C57BL/6J mice were injected s.c. once daily for five days with either 25 μg of GLP2-L17K [L1]-4 or vehicle. Animals were sacrificed on day 6.

T1 sequence (P27487 whole entry, species assumed): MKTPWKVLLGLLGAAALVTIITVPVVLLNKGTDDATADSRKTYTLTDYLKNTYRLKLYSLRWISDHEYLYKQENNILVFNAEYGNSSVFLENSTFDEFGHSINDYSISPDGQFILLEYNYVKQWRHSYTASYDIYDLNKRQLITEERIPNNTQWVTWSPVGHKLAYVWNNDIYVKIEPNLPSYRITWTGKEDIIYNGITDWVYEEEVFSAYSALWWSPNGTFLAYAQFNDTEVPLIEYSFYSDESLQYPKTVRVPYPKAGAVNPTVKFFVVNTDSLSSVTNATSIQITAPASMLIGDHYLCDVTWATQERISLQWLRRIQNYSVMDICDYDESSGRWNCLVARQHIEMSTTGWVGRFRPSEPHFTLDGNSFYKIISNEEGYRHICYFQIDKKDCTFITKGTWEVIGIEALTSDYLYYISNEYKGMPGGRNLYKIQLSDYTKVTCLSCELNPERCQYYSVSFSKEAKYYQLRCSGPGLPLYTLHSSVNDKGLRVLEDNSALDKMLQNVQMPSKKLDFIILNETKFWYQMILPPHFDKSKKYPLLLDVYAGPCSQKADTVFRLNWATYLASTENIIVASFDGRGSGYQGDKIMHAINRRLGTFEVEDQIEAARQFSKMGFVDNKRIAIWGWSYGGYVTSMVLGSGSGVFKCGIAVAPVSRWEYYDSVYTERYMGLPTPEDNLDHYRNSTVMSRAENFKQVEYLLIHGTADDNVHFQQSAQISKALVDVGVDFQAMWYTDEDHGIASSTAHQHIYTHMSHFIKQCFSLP

With `CC[C@H](C)[C@H](NC(=O)[C@H](Cc1ccccc1)NC(=O)[C@H](CCC(=O)O)NC(=O)[C@H](CCCCN)NC(=O)[C@H](C)NC(=O)[C@H](C)NC(=O)[C@H](CCC(N)=O)NC(=O)CNC(=O)[C@H](CCC(=O)O)NC(=O)[C@H](CC(C)C)NC(=O)[C@H](Cc1ccc(O)cc1)NC(=O)[C@H](CO)NC(=O)[C@H](CO)NC(=O)[C@@H](NC(=O)[C@H](CC(=O)O)NC(=O)[C@H](CO)NC(=O)[C@@H](NC(=O)[C@H](Cc1ccccc1)NC(=O)[C@@H](NC(=O)CNC(=O)[C@H](CCC(=O)O)NC(=O)[C@H](C)NC(=O)[C@H](Cc1c[nH]cn1)NCC(C)C)[C@@H](C)O)[C@@H](C)O)C(C)C)C(=O)N[C@@H](C)C(=O)N[C@@H](Cc1c[nH]c2ccccc12)C(=O)N[C@@H](CC(C)C)C(=O)N[C@H](C(=O)N[C@@H](CCCCN)C(=O)NCC(=O)N[C@@H](CCCNC(=N)N)C(N)=O)C(C)C` [G-6, isobutyl GLP-1], at DPP4 [1], the “DPP4 degradation / resistance (in words)” value is reported as “virtually complete DPP4 resistance”.
On the same count and under the same terms, next, `CC[C@H](C)[C@H](NC(=O)[C@H](C)NC(=O)[C@H](CC(=O)O)NC(=O)[C@H](C)NC(=O)[C@H](Cc1ccc(O)cc1)NCC(F)(F)F)C(=O)N[C@@H](Cc1ccccc1)C(=O)N[C@H](C(=O)N[C@@H](CC(N)=O)C(=O)N[C@@H](CO)C(=O)N[C@@H](Cc1ccc(O)cc1)C(=O)N[C@@H](CCCNC(=N)N)C(=O)N[C@@H](CCCCN)C(=O)N[C@H](C(=O)N[C@@H](CC(C)C)C(=O)NCC(=O)N[C@@H](CCC(N)=O)C(=O)N[C@@H](CC(C)C)C(=O)N[C@@H](CO)C(=O)N[C@@H](C)C(=O)N[C@@H](CCCNC(=N)N)C(=O)N[C@@H](CCCCN)C(=O)N[C@@H](CC(C)C)C(=O)N[C@@H](CC(C)C)C(=O)N[C@@H](CCC(N)=O)C(=O)N[C@@H](CC(=O)O)C(=O)N[C@H](C(=O)N[C@@H](CCSC)C(=O)N[C@@H](CO)C(=O)N[C@@H](CCCNC(=N)N)C(N)=O)[C@@H](C)CC)C(C)C)[C@@H](C)O` [GH29-4]: “resistant to enzyme induced potency loss”.
Regarding `CC[C@H](C)[C@H](NC(=O)[C@H](Cc1ccccc1)NC(=O)[C@H](CC(=O)O)NC(=O)[C@H](CCCNC(=N)N)NC(=O)[C@H](C)NC(=O)[C@H](C)NC(=O)[C@H](CC(C)C)NC(=O)[C@H](CC(N)=O)NC(=O)[C@H](CC(=O)O)NC(=O)[C@H](CC(C)C)NC(=O)[C@@H](NC(=O)[C@@H](NC(=O)[C@H](CC(N)=O)NC(=O)[C@H](CCSC)NC(=O)[C@H](CCC(=O)O)NC(=O)[C@H](CC(=O)O)NC(=O)[C@H](CO)NC(=O)[C@H](Cc1ccccc1)NC(=O)[C@H](CO)NC(=O)CNC(=O)[C@H](CC(=O)O)NC(=O)[C@H](C)NC(=O)[C@H](Cc1c[nH]cn1)NCC(F)(F)F)[C@@H](C)O)[C@@H](C)CC)C(=O)N[C@@H](CC(N)=O)C(=O)N[C@@H](Cc1c[nH]c2ccccc12)C(=O)N[C@@H](CC(C)C)C(=O)N[C@H](C(=O)N[C@@H](CCC(N)=O)C(=O)N[C@H](C(=O)N[C@@H](CCCCN)C(=O)N[C@H](C(=O)N[C@H](C(=O)N[C@@H](CC(=O)O)C(=O)O)[C@@H](C)O)[C@@H](C)CC)[C@@H](C)O)[C@@H](C)CC` [GLP2-4], the “DPP4 degradation / resistance (in words)” value on DPP4 [2] is on record as “no potency loss; also recorded: completely resistant to degradation”; on DPP4 [2] (listed as GLP-2-4) it was “no potency loss”.
Take `CCCCCCCCCCCCCCCC(=O)NCCC(=O)NCCCC[C@H](NC(=O)[C@H](CC(N)=O)NC(=O)[C@H](CC(=O)O)NC(=O)[C@H](CC(C)C)NC(=O)[C@@H](NC(=O)[C@@H](NC(=O)[C@H](CC(N)=O)NC(=O)[C@H](CCSC)NC(=O)[C@H](CCC(=O)O)NC(=O)[C@H](CC(=O)O)NC(=O)[C@H](CO)NC(=O)[C@H](Cc1ccccc1)NC(=O)[C@H](CO)NC(=O)CNC(=O)[C@H](CC(=O)O)NC(=O)[C@H](C)NC(=O)[C@H](Cc1c[nH]cn1)NCC(F)(F)F)[C@@H](C)O)[C@@H](C)CC)C(=O)N[C@@H](C)C(=O)N[C@@H](C)C(=O)N[C@@H](CCCNC(=N)N)C(=O)N[C@@H](CC(=O)O)C(=O)N[C@@H](Cc1ccccc1)C(=O)N[C@H](C(=O)N[C@@H](CC(N)=O)C(=O)N[C@@H](Cc1c[nH]c2ccccc12)C(=O)N[C@@H](CC(C)C)C(=O)N[C@H](C(=O)N[C@@H](CCC(N)=O)C(=O)N[C@H](C(=O)N[C@@H](CCCCN)C(=O)N[C@H](C(=O)N[C@H](C(=O)N[C@@H](CC(=O)O)C(=O)O)[C@@H](C)O)[C@@H](C)CC)[C@@H](C)O)[C@@H](C)CC)[C@@H](C)CC` [GLP2-L17K(l1)-4] (H-[N(CH2CF3)His]ADGSFSDEMNTILDNK([βAla-Palmitoyl])AARDFINWLIQTKITD-OH; N-terminus and C-terminus assumed): the “bioactivity in plasma 24 h after injection” value in data set [3] is on record as “extended bioactivity in vivo”; in data set [3] (listed as GLP2-L17K [L1]-4), “remains at high levels in the circulation”. For the same molecule, the “intestinal mucosal growth / trophic effect” value with C57BL/6J mice is “induces intestinal mucosal growth”; in the data set with C57BL/6J mice (listed as GLP2-L17K [L1]-4) it was “trophic effect on the intestinal mucosa”. For the same molecule, the intestinal weight entry in the data set on C57BL/6J mice is “enhances intestinal weight”; with C57BL/6J mice (listed as GLP2-L17K [L1]-4), “increased intestinal weight in a dose dependent manner”. For the same molecule, the “DPP4 degradation / resistance (in words)” value is on record as “refractory to DPP4 degradation” at DPP4 [2] and “protease (DPP4) resistant” at DPP4 [2] (listed as F-GLP2-palm).
On to `CC[C@H](C)[C@H](NC(=O)[C@H](Cc1ccccc1)NC(=O)[C@H](CCC(=O)O)NC(=O)[C@H](CCCCN)NC(=O)[C@H](C)NC(=O)[C@H](C)NC(=O)[C@H](CCC(N)=O)NC(=O)CNC(=O)[C@H](CCC(=O)O)NC(=O)[C@H](CC(C)C)NC(=O)[C@H](Cc1ccc(O)cc1)NC(=O)[C@H](CO)NC(=O)[C@H](CO)NC(=O)[C@@H](NC(=O)[C@H](CC(=O)O)NC(=O)[C@H](CO)NC(=O)[C@@H](NC(=O)[C@H](Cc1ccccc1)NC(=O)[C@@H](NC(=O)CNC(=O)[C@H](CCC(=O)O)NC(=O)[C@H](C)NC(=O)[C@H](Cc1c[nH]cn1)NC(C)=O)[C@@H](C)O)[C@@H](C)O)C(C)C)C(=O)N[C@@H](C)C(=O)N[C@@H](Cc1c[nH]c2ccccc12)C(=O)N[C@@H](CC(C)C)C(=O)N[C@H](C(=O)N[C@@H](CCCCN)C(=O)NCC(=O)N[C@@H](CCCNC(=N)N)C(N)=O)C(C)C` [GLP-1b], for which the “DPP4 degradation / resistance (in words)” value at DPP4 [1] was “stability against DPP4”.
Turning to `CC[C@H](C)[C@H](NC(=O)[C@H](Cc1ccccc1)NC(=O)[C@H](CCC(=O)O)NC(=O)[C@H](CCCCN)NC(=O)[C@H](C)NC(=O)[C@H](C)NC(=O)[C@H](CCC(N)=O)NC(=O)CNC(=O)[C@H](CCC(=O)O)NC(=O)[C@H](CC(C)C)NC(=O)[C@H](Cc1ccc(O)cc1)NC(=O)[C@H](CO)NC(=O)[C@H](CO)NC(=O)[C@@H](NC(=O)[C@H](CC(=O)O)NC(=O)[C@H](CO)NC(=O)[C@@H](NC(=O)[C@H](Cc1ccccc1)NC(=O)[C@@H](NC(=O)CNC(=O)[C@H](CCC(=O)O)NC(=O)[C@H](C)NC(=O)[C@H](Cc1c[nH]cn1)NCc1ccccc1)[C@@H](C)O)[C@@H](C)O)C(C)C)C(=O)N[C@@H](C)C(=O)N[C@@H](Cc1c[nH]c2ccccc12)C(=O)N[C@@H](CC(C)C)C(=O)N[C@H](C(=O)N[C@@H](CCCCN)C(=O)NCC(=O)N[C@@H](CCCNC(=N)N)C(N)=O)C(C)C` [benzyl], on DPP4 [1], the “DPP4 degradation / resistance (in words)” value is “virtually complete DPP4 resistance”.
On to `CCCCCCCCCCCCCCCC(=O)N[C@@H](CCC(=O)NCCCC[C@H](NC(=O)[C@H](C)NC(=O)[C@H](C)NC(=O)[C@H](CCC(N)=O)NC(=O)CNC(=O)[C@H](CCC(=O)O)NC(=O)[C@H](CC(C)C)NC(=O)[C@H](Cc1ccc(O)cc1)NC(=O)[C@H](CO)NC(=O)[C@H](CO)NC(=O)[C@@H](NC(=O)[C@H](CC(=O)O)NC(=O)[C@H](CO)NC(=O)[C@@H](NC(=O)[C@H](Cc1ccccc1)NC(=O)[C@@H](NC(=O)CNC(=O)[C@H](CCC(=O)O)NC(=O)[C@H](C)NC(=O)[C@@H](N)Cc1cnc[nH]1)[C@@H](C)O)[C@@H](C)O)C(C)C)C(=O)N[C@@H](CCC(=O)O)C(=O)N[C@@H](Cc1ccccc1)C(=O)N[C@H](C(=O)N[C@@H](C)C(=O)N[C@@H](Cc1c[nH]c2ccccc12)C(=O)N[C@@H](CC(C)C)C(=O)N[C@H](C(=O)N[C@@H](CCCNC(=N)N)C(=O)NCC(=O)N[C@@H](CCCNC(=N)N)C(=O)NCC(=O)O)C(C)C)[C@@H](C)CC)C(=O)O` [liraglutide], for which the “potency loss after incubation with DPP4” value at DPP4 [1] (overnight incubation with the enzyme, GLP-1R readout) is recorded as above 50 fold.
For Glucagon, the “DPP4 degradation / resistance (in words)” value at DPP4 [1] is on record as “degraded by DPP4”.
